Broadly, the pIC50 is −log10 of the IC50, conventionally taken in molar units. Low values mean a high IC50, high ones a low IC50.

The values below come from patent US20070249670A1, “Glycogen Phosphorylase Inhibitor Compounds and Pharmaceutical Compositions Thereof” (SMITHKLINE BEECHAM CORPORATION, priority 2004, published 2007).

This experiment addresses T1, human liver glycogen phosphorylase a (HLGPa) (Homo sapiens, UniProt P06737).
T1 construct: creating a full-length cDNA fused at the 5′ end to codons for methionine-glycine-alanine-histidine; 6xHis tag (leader Met-Gly-Ala-His6-Gly-Gly) (N); made in house; host or cells: E. coli (bacterial expression plasmid pTXK1007LTev)
T1 sequence (P06737 2-847 limits assumed): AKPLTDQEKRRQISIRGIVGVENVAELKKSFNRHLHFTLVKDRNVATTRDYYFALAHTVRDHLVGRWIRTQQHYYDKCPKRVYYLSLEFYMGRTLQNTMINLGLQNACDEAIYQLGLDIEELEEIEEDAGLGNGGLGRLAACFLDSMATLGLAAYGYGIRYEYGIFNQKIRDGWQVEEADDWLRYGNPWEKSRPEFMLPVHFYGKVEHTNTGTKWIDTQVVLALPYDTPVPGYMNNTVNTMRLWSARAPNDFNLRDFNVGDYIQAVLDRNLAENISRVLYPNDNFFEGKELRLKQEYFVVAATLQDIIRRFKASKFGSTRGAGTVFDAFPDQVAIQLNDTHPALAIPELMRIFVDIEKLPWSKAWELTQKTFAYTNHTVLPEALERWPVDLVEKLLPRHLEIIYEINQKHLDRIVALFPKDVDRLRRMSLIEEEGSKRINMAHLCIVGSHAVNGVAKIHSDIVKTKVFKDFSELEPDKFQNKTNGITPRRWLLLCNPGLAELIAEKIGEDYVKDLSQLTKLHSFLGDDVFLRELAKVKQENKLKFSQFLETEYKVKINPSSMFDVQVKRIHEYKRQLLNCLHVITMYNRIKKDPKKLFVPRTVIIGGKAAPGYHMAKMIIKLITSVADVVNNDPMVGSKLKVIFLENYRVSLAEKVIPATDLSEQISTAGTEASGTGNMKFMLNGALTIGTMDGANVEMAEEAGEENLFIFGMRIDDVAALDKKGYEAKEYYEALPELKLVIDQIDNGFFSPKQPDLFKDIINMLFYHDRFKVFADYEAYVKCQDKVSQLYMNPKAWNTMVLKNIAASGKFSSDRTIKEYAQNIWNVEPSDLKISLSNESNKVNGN
Description: Human liver glycogen phosphorylase a enzymatic activity assay (coupled, fluorescent resorufin readout, with and without 10 mM glucose). Format: biochemical.

[1] abbreviates: human liver glycogen phosphorylase a enzymatic activity assay.
Setting [2] is: human liver glycogen phosphorylase a, table does not say whether with or without 10 mM glucose.

Molecules are shown by their SMILES. pIC50: −log10 of the molar value.

Turning to `Cc1cccc(C)c1NC(=O)Nc1cc(Cl)c(Cl)cc1C(=O)N[C@H](C(=O)O)C1CCCCC1` [Example 180, (2S)-Cyclohexyl({[4,5-dichloro-2-({[(2,6-dimethylphenyl)amino]carbonyl}amino)phenyl]carbonyl}amino)ethanoic acid], the pIC50 under setting [1] is 7.03.

`Cc1cccc(C)c1NC(=O)Nc1cc(-c2cccnc2)ccc1C(=O)N[C@H](C(=O)O)C1CCCCC1` [Example 181, (2S)-Cyclohexyl({[2-({[(2,6-dimethylphenyl)amino]carbonyl}amino)-4-(3-pyridinyl)phenyl]carbonyl}amino)ethanoic acid] showed a pIC50 under setting [1] of 7.00. The pIC50 values of the last two compounds are within 0.2 log units of each other.

In turn, `Cc1cc(C)c(NC(=O)Nc2cc(-c3ccccc3)ccc2C(=O)N[C@H](C(=O)O)C2CCCCC2)c(C)c1` [Example 182, (2S)-Cyclohexyl({[3-({[(2,4,6-trimethylphenyl)amino]carbonyl}-amino)-4-biphenylyl]carbonyl}amino)ethanoic acid] had a negative logarithm of the IC50 (pIC50) under setting [1] of 7.77.

`Cc1cccc(C)c1NC(=O)Nc1cc(-c2cccs2)ccc1C(=O)N[C@H](C(=O)O)C1CCCCC1` [Example 183, (2S)-Cyclohexyl({[2-({[(2,6-dimethylphenyl)amino]carbonyl}amino)-4-(2-thienyl)phenyl]carbonyl}amino)ethanoic acid] had a pIC50 under setting [1] of 7.00.

The compound `Cc1cccc(C)c1NC(=O)Nc1cc(-c2ccsc2)ccc1C(=O)N[C@H](C(=O)O)C1CCCCC1` [Example 184, (2S)-Cyclohexyl({[2-({[(2,6-dimethylphenyl)amino]carbonyl}amino)-4-(3-thienyl)phenyl]carbonyl}amino)ethanoic acid] gave a pIC50 under setting [1] of 6.66. Against the preceding compound, the pIC50 is 0.34 log units lower.

`Cc1cccc(C)c1NC(=O)Nc1cc(-c2ccncc2)ccc1C(=O)N[C@H](C(=O)O)C1CCCCC1` [Example 185, (2S)-Cyclohexyl({[2-({[(2,6-dimethylphenyl)amino]carbonyl}amino)-4-(4-pyridinyl)phenyl]carbonyl}amino)ethanoic acid] gave a pIC50 under setting [1] of 6.77. The pIC50 values of the last two compounds are within 0.2 log units of each other.

The compound `O=C(Cc1c(Cl)cc(Cl)cc1Cl)Nc1cc(-c2ccccc2)ccc1C(=O)N[C@H](C(=O)O)C1CCCCC1` [Example 186, (2S)-Cyclohexyl{[(3-{[(2,4,6-trichlorophenyl)acetyl]amino}-4-biphenylyl)carbonyl]amino}ethanoic acid] had a pIC50 under setting [1] of 6.47. This pIC50 is 0.30 log units lower than that of the compound before.

`Cc1cccc(C)c1NC(=O)Nc1cc(-c2ccc(O)cc2)ccc1C(=O)N[C@H](C(=O)O)C1CCCCC1` [Example 187, (2S)-Cyclohexyl({[3-({[(2,6-dimethylphenyl)amino]carbonyl}amino)-4′-hydroxy-4-biphenylyl]carbonyl}amino)ethanoic acid] showed a pIC50 under setting [1] of 7.47.

Turning to `Cc1cccc(C)c1NC(=O)Nc1cc(-c2ccc(F)c(F)c2)ccc1C(=O)N[C@H](C(=O)O)C1CCCCC1` [Example 188, (2S)-Cyclohexyl({[3-({[(2,6-dimethylphenyl)amino]carbonyl}amino)-3′,4′-difluoro-4-biphenylyl]carbonyl}amino)ethanoic acid], the negative logarithm of the IC50 (pIC50) under setting [1] is 7.13. Against the preceding compound, the pIC50 is 0.34 log units lower.

`Cc1cccc(C)c1NC(=O)Nc1cc(-c2cncnc2)ccc1C(=O)N[C@H](C(=O)O)C1CCCCC1` [Example 189, (2S)-Cyclohexyl({[2-({[(2,6-dimethylphenyl)amino]carbonyl}amino)-4-(5-pyrimidinyl)phenyl]carbonyl}amino)ethanoic acid]: the pIC50 under setting [1] was 6.48.

Take `Cc1cccc(C)c1NC(=O)Nc1cc(F)ccc1C(=O)N[C@H](C(=O)O)C1CCCCC1` [Example 190, (2S)-Cyclohexyl({[2-({[(2,6-dimethylphenyl)amino]carbonyl}amino)-4-fluorophenyl]carbonyl}amino)ethanoic acid]: the pIC50 under setting [1] is 6.15.

For `COc1ccc(-c2ccc(C(=O)N[C@H](C(=O)O)C3CCCCC3)c(NC(=O)Nc3c(C)cccc3C)c2)cc1` [Example 191, (2S)-Cyclohexyl({[3-({[(2,6-dimethylphenyl)amino]carbonyl}amino)-4′-(methyloxy)-4-biphenylyl]carbonyl}amino)ethanoic acid], under setting [1], the pIC50 is 7.49.

Under setting [1], `Cc1cc(C)c(NC(=O)Nc2cc(F)ccc2C(=O)N[C@H](C(=O)O)C2CCCCC2)c(C)c1` [Example 192, (2S)-Cyclohexyl({[4-fluoro-2-({[(2,4,6-trimethylphenyl)amino]carbonyl}amino)phenyl]carbonyl}amino)ethanoic acid] gave a pIC50 of 6.92.

Consider `COc1ccc(-c2ccc(C(=O)N[C@H](C(=O)O)C3CCCCC3)c(NC(=O)Nc3c(C)cc(C)cc3C)c2)cc1` [Example 193, (2S)-Cyclohexyl({[4′-(methyloxy)-3-({[(2,4,6-trimethylphenyl)amino]carbonyl}amino)-4-biphenylyl]carbonyl}amino)ethanoic acid], for which the pIC50 under setting [1] was 8.15.

With `Cc1cc(C)c(NC(=O)Nc2cc(-c3ccc(O)cc3)ccc2C(=O)N[C@H](C(=O)O)C2CCCCC2)c(C)c1` [Example 194, (2S)-Cyclohexyl({[4′-hydroxy-3-({[(2,4,6-trimethylphenyl)amino]carbonyl}amino)-4-biphenylyl]carbonyl}amino)ethanoic acid], the pIC50 under setting [1] is 7.96. This pIC50 and that of the compound before are within 0.2 log units of each other.

`Cc1cc(C)c(NC(=O)Nc2cc([N+](=O)[O-])ccc2C(=O)N[C@H](C(=O)O)C2CCCCC2)c(C)c1` [Example 195, (2S)-Cyclohexyl({[4-nitro-2-({[(2,4,6-trimethylphenyl)amino]carbonyl}amino)phenyl]carbonyl}amino)ethanoic acid]: the pIC50 under setting [1] is 6.26.

Take `Cc1cc(C)c(NC(=O)Nc2cc(N)ccc2C(=O)N[C@H](C(=O)O)C2CCCCC2)c(C)c1` [Example 196, (2S)-({[4-Amino-2-({[(2,4,6-trimethylphenyl)amino]carbonyl}-amino)phenyl]carbonyl}amino)(cyclohexyl)ethanoic acid]: under setting [1], the pIC50 is 6.96.

For the compound `Cc1cc(C)c(NC(=O)Nc2cc(-c3ccc([N+](=O)[O-])cc3)ccc2C(=O)N[C@H](C(=O)O)C2CCCCC2)c(C)c1` [Example 197, (2S)-Cyclohexyl({[4′-nitro-3-({[(2,4,6-trimethylphenyl)amino]carbonyl}amino)-4-biphenylyl]carbonyl}amino)ethanoic acid], the pIC50 under setting [1] was 7.85.

Under setting [1], `Cc1cc(C)c(NC(=O)Nc2cc(-c3ccc(CO)cc3)ccc2C(=O)N[C@H](C(=O)O)C2CCCCC2)c(C)c1` [Example 198, (2S)-Cyclohexyl({[4′-(hydroxymethyl)-3-({[(2,4,6-trimethylphenyl)amino]carbonyl}amino)-4-biphenylyl]carbonyl}amino)ethanoic acid] had a pIC50 of 7.57.

With `Cc1cc(C)c(NC(=O)Nc2cc(-c3ccc(N)cc3)ccc2C(=O)N[C@H](C(=O)O)C2CCCCC2)c(C)c1` [Example 199, (2S)-({[4′-Amino-3-({[(2,4,6-trimethylphenyl)amino]carbonyl}amino)-4-biphenylyl]carbonyl}amino)(cyclohexyl)ethanoic acid], the pIC50 under setting [2] was 8.40.

Turning to `O=C(Nc1cc(-c2ccccc2)ccc1C(=O)N[C@H](C(=O)O)C1CCCCC1)Nc1c(Cl)cc(Cl)cc1Cl` [Example 200, (2S)-Cyclohexyl({[3-({[(2,4,6-trichlorophenyl)amino]carbonyl}amino)-4-biphenylyl]carbonyl}amino)ethanoic acid], the pIC50 under setting [2] was 6.89. Against the preceding compound, the pIC50 is 1.51 log units lower.

Turning to `COc1ccc(-c2ccc(C(=O)N[C@H](C(=O)O)C(C)(C)C)c(NC(=O)Nc3c(Cl)cc(Cl)cc3Cl)c2)cc1` [Example 201, 3-Methyl-N-{[4′-(methyloxy)-3-({[(2,4,6-trichlorophenyl)amino]carbonyl}amino)-4-biphenylyl]carbonyl}-L-valine], the pIC50 under setting [2] was 6.17.

Turning to `COc1ccc(-c2ccc(C(=O)N[C@H](C(=O)O)C(C)(C)C)c(NC(=O)Nc3c(C)cc(C)cc3C)c2)cc1` [Example 202, 3-Methyl-N-{[4′-(methyloxy)-3-({[(2,4,6-trimethylphenyl)amino]carbonyl}amino)-4-biphenylyl]carbonyl}-L-valine], the pIC50 under setting [2] was 6.85. Compared with the last compound, the pIC50 is 0.68 log units higher.

Regarding `O=C(Nc1cc(-c2ccccc2)ccc1C(=O)N[C@H](C(=O)O)C1CCCCC1)Nc1c(Cl)cccc1Cl` [Example 203, (2S)-Cyclohexyl({[3-({[(2,6-dichlorophenyl)amino]carbonyl}amino)-4-biphenylyl]carbonyl}amino)ethanoic acid], the pIC50 under setting [2] was 7.12.

Compound `Cc1cc(C)c(NC(=O)Nc2cc(-c3ccc(OC(F)(F)F)cc3)ccc2C(=O)N[C@H](C(=O)O)C2CCCCC2)c(C)c1` [Example 204, (2S)-Cyclohexyl({[4′-[(trifluoromethyl)oxy]-3-({[(2,4,6-trimethylphenyl)amino]carbonyl}amino)-4-biphenylyl]carbonyl}amino)ethanoic acid] had a pIC50 under setting [2] of 6.72.
